In brackets after ≈: the same amount, converted by molar mass.
Settings: buffer; pH 7.4; 200.0 µM
Cc1cc(Nc2ccc(O)cc2)n2c(nc3ccccc32)c1C#N gave a solubility kinetic of 0.9 µg/mL (≈ 2.86 µM). Molecule CCC(=O)Nc1cc2c3c(c1)CCN3C(=O)CC2 has a solubility kinetic of 35.3 µg/mL (≈ 144 µM). For CC1CCN(C(=S)NC(=O)c2ccco2)CC1, the solubility kinetic was > 37.8 µg/mL. For O=C(Nc1ccc(Br)cc1)N1CCCC(O)C1 (stereo not given), the solubility kinetic was > 44.9 µg/mL. In the case of Cc1cccc(C(=O)NCC(=O)OCC(=O)c2ccc(C)s2)c1, the solubility kinetic was > 49.7 µg/mL. In the case of O=C(COC(=O)CCc1ccccc1)NCc1ccccc1, the solubility kinetic was > 44.6 µg/mL. In the case of O=C(c1ccc([N+](=O)[O-])s1)N1CCc2ccccc21, the solubility kinetic was < 0.3 µg/mL. O=[N+]([O-])c1ccc(N2CCN(C(=S)Nc3ccc(F)cc3)CC2)cc1 gave a solubility kinetic of 0.4 µg/mL (≈ 1.11 µM). In the case of Cc1ccc(C(=O)/C=C/N(C)C)cn1, the solubility kinetic was 26.6 µg/mL (≈ 140 µM). For Cc1cc(NC(=O)Nc2c[nH]c(=O)[nH]c2=O)ccc1Br, the solubility kinetic was 1.8 µg/mL (≈ 5.31 µM). With Cc1ccc(C(=O)NCCc2ccccc2)cc1N1CCCC1=O the solubility kinetic was > 48.4 µg/mL. Molecule COc1cccc2cc(C(=O)NCc3ccc(F)cc3)c(=N)oc12 has a solubility kinetic of 1.7 µg/mL (≈ 5.21 µM). For O=C(Nc1ccc(CN2CCOCC2)cc1)c1cc(Br)ccc1Cl, the solubility kinetic was 57 µg/mL (≈ 139 µM). In the case of COC(=O)CSc1nc2ccc(C)cc2cc1C#N, the solubility kinetic was 1.9 µg/mL (≈ 6.98 µM). With O=C(COC(=O)C12CC3CC(CC(O)(C3)C1)C2)Nc1ccc(Cl)c(S(=O)(=O)N2CCOCC2)c1 the solubility kinetic was > 77 µg/mL. In the case of O=C(NC(=S)N1CCCCCC1)c1ccccc1, the solubility kinetic was > 39.4 µg/mL. O=C(OCC(=O)N1CCc2ccccc21)c1ccccc1F gave a solubility kinetic of 1.7 µg/mL (≈ 5.68 µM). Work on CCOC(=O)N1CCN(c2ccc(S(=O)(=O)N3CCOCC3)cn2)CC1 yielded a solubility kinetic of 47 µg/mL (≈ 122 µM). CN(C)c1ccc(C2CC(=O)C=C(Nc3ccccc3N)C2)cc1 (stereo not given) showed a solubility kinetic of 48.2 µg/mL (≈ 150 µM). For Cn1c(C(=O)N[C@@H](Cc2ccccc2)C(=O)O)cc2cc(F)ccc21, the solubility kinetic was > 51.1 µg/mL. Molecule COc1ccccc1NC(=O)c1ccc(COc2ccccc2OC)cc1 has a solubility kinetic of 3.1 µg/mL (≈ 8.53 µM). For Cc1nc(C(F)(F)F)ccc1C(=O)N1CCCCC1, the solubility kinetic was 36.5 µg/mL (≈ 134 µM). With O=C(Nc1cc([N+](=O)[O-])ccc1F)C1CCN(S(=O)(=O)c2cccs2)CC1 the solubility kinetic was 4.4 µg/mL (≈ 10.6 µM). COc1ccc2c([N+](=O)[O-])c(Cl)[nH]c2c1 gave a solubility kinetic of 32.3 µg/mL (≈ 143 µM). For N#CCNC1CC(=O)N(c2ccccc2)C1=O (stereo not given), the solubility kinetic was > 34.4 µg/mL. Cc1ccc(CNC(=O)N2CCN(c3ccc(C)cc3)CC2)cc1 gave a solubility kinetic of 4.1 µg/mL (≈ 12.7 µM). For C#CCOc1ccc2c(c1)c(C(C)=O)c(C)n2Cc1ccccc1, the solubility kinetic was 1 µg/mL (≈ 3.15 µM). Work on CC1CCC(NC(=O)c2cc3c(s2)CCCC3)CC1 (stereo not given) yielded a solubility kinetic of 2.8 µg/mL (≈ 10.1 µM). Molecule O=C1Nc2ccccc2C1Cc1ccccc1 (stereo not given) has a solubility kinetic of 29 µg/mL (≈ 130 µM). For Cc1cccc(C(=O)N[C@@H](C)C(=O)N2CCN(c3ncccn3)CC2)c1, the solubility kinetic was > 53 µg/mL. Work on COc1cc(/C=C(\CCC(=O)O)c2nc3ccccc3s2)ccc1OCC(=O)Nc1c(Cl)cccc1Cl yielded a solubility kinetic of 24.2 µg/mL (≈ 43.4 µM). In the case of O=C(Nc1cccnc1)c1cccc(S(=O)(=O)N2CCCCC2)c1, the solubility kinetic was > 51.8 µg/mL. With CN1CCC(N(CCc2ccccc2)C(=O)CCC(=O)O)CC1 the solubility kinetic was > 47.8 µg/mL. In the case of CC1Cc2ccccc2N1C(=O)COC(=O)c1ccc([N+](=O)[O-])o1 (stereo not given), the solubility kinetic was > 49.5 µg/mL. In the case of O=S(=O)(c1ccc(N2CCCC2)nc1)N1CCCC1, the solubility kinetic was 36.4 µg/mL (≈ 129 µM). CC(Cc1cccs1)NCc1ccc(Cl)cc1 (stereo not given) gave a solubility kinetic of 22.6 µg/mL (≈ 85 µM). For Cc1nc(NC(=O)CCl)sc1C(=O)N(C)C, the solubility kinetic was > 39.3 µg/mL. In the case of O=C(NCc1ccccc1Cl)[C@@H]1CCCN1S(=O)(=O)c1ccc(Cl)cc1, the solubility kinetic was 38.4 µg/mL (≈ 92.9 µM). In the case of COCCN(C(=S)Nc1ccc(C)cc1)C(C)c1ccco1 (stereo not given), the solubility kinetic was 3.4 µg/mL (≈ 10.7 µM). For Fc1cccc(Cl)c1/C=C/c1cnc2ccccc2n1, the solubility kinetic was < 0.3 µg/mL. With CCOc1ccc(C(=O)Nc2nc(C)c(C(=O)OC)s2)cc1 the solubility kinetic was < 0.3 µg/mL. Cc1ccccc1CNC(=O)CN1C(=O)c2ccccc2S1(=O)=O showed a solubility kinetic of 11.2 µg/mL (≈ 32.5 µM). With CCC(C)[C@H](NC(=O)Nc1ccccc1F)C(=O)O (stereo not given in full) the solubility kinetic was > 40.2 µg/mL. In the case of CC(=O)c1ccc(S(=O)(=O)N2CCN(C(C)=O)CC2)cc1, the solubility kinetic was > 46.6 µg/mL. In the case of COc1ccc(C(=O)O)cc1S(N)(=O)=O, the solubility kinetic was > 34.7 µg/mL. In the case of N#Cc1cccc(NC(=O)CSc2cccc[n+]2[O-])c1, the solubility kinetic was > 42.8 µg/mL. With Cc1cccc(C)c1-n1c(=O)n(Cc2ccccc2)c(=O)c2[nH]cnc21 the solubility kinetic was 20.4 µg/mL (≈ 58.9 µM). Cc1ccccc1NC(=O)CN1C(=O)c2ccccc2C1=O showed a solubility kinetic of 8.5 µg/mL (≈ 28.9 µM). With O=C(/C=C/c1cccc([N+](=O)[O-])c1)c1ccco1 the solubility kinetic was 1.7 µg/mL (≈ 6.99 µM). In the case of CC(C)N(C(=O)Cn1c(Cl)nc2ccccc21)C(C)C, the solubility kinetic was > 44.1 µg/mL. In the case of Cc1ccccc1NC(=O)N1CCCN(c2ccc(C#N)cn2)CC1, the solubility kinetic was > 50.3 µg/mL. In the case of CC(=O)Nc1ccc(NC(=O)/C=C/c2ccc(Cl)cc2)cc1, the solubility kinetic was < 0.3 µg/mL. With Fc1ccc(NC(=S)NCc2ccccc2)cc1 the solubility kinetic was > 39 µg/mL. In the case of Nc1c2c(nc3sc4c(c13)CCCC4)-c1ccccc1CC2, the solubility kinetic was < 0.3 µg/mL. For CC(C)Oc1cccc(NC(=O)c2cnccc2C(F)(F)F)c1, the solubility kinetic was 43.9 µg/mL (≈ 135 µM). With CC(=O)c1cc(N2CCOCC2)ccc1[N+](=O)[O-] the solubility kinetic was > 37.5 µg/mL. In the case of COCCN(C(=O)c1ccccc1OC)c1nnc(C)s1, the solubility kinetic was > 46.1 µg/mL. COc1ccc([N+](=O)[O-])cc1NC(=O)c1ccccc1SC gave a solubility kinetic of 0.4 µg/mL (≈ 1.26 µM). With COc1ccc(S(N)(=O)=O)cc1C(=O)OCC(=O)N1c2ccccc2NC(=O)C1(C)C the solubility kinetic was > 67.1 µg/mL. Work on O=C1COc2ccc(S(=O)(=O)NCCc3ccccc3)cc2N1 yielded a solubility kinetic of 13 µg/mL (≈ 39.1 µM). For O=CN1CCN(C(=S)NC(=O)c2ccc(Cl)cc2)CC1, the solubility kinetic was 44.3 µg/mL (≈ 142 µM). With O=C(NC(=S)NCc1cccnc1)c1ccccc1F the solubility kinetic was > 43.4 µg/mL. Work on CSc1ccc(/C=C/C(=O)OCC(=O)N2CCCCCC2)cc1 yielded a solubility kinetic of 3.8 µg/mL (≈ 11.4 µM). In the case of CCCC/C(O)=C1\C(=O)CCCC1=NCCc1c(C)[nH]c2ccccc12, the solubility kinetic was 14.3 µg/mL (≈ 40.6 µM). In the case of O=C(Cc1cccs1)Nc1nc(-c2cccnc2)cs1, the solubility kinetic was 5.3 µg/mL (≈ 17.6 µM). With CC1CC(C)CN(C(=O)c2ccc3nc[nH]c3c2)C1 (stereo not given) the solubility kinetic was > 38.6 µg/mL. O=C(NS(=O)(=O)c1ccc(Cl)cc1)c1ccccc1 showed a solubility kinetic of 26.7 µg/mL (≈ 90.3 µM). For CCn1c(C)cc(/C=C2/SC(=O)N(C(C)C(=O)OC)C2=O)c1C (stereo not given), the solubility kinetic was 22.3 µg/mL (≈ 66.3 µM). With CCOC(=O)c1cnc2c(cnn2C)c1NCCCn1ccnc1 the solubility kinetic was > 49.3 µg/mL. With O=C(NCC(O)c1ccccc1)c1cccs1 (stereo not given) the solubility kinetic was > 37.1 µg/mL. In the case of Oc1nc(-c2ccc(Cl)cc2)n2ccncc12, the solubility kinetic was > 36.9 µg/mL. For O=C(CSc1nccc(=O)[nH]1)NCc1ccc(Cl)cc1, the solubility kinetic was > 46.5 µg/mL. In the case of CCN(CC)CCn1c(=S)[nH]c2ccc(Br)cc2c1=O, the solubility kinetic was > 53.4 µg/mL. CC(C)(C)NC(=O)C1CCN(C(=O)c2ccco2)CC1 gave a solubility kinetic of 41.2 µg/mL (≈ 148 µM). For O=C1C=C(NC2CCCC2)CC(c2ccccc2)C1 (stereo not given), the solubility kinetic was > 38.3 µg/mL. For CN1c2ccccc2C(=O)NC1c1ccc(Cl)cc1 (stereo not given), the solubility kinetic was > 40.9 µg/mL. With O=c1cc(C(F)(F)F)[nH]c2c(OC(F)(F)F)cccc12 the solubility kinetic was > 44.6 µg/mL. In the case of O=C1C=C(Nc2ccc(F)cc2)c2ccccc2C1=O, the solubility kinetic was < 0.6 µg/mL. With Cc1ccc(OCC(=O)N2c3ccccc3CC2C)c([N+](=O)[O-])n1 (stereo not given) the solubility kinetic was 21.3 µg/mL (≈ 65.1 µM). With CCOCCCNC(=O)c1ccc(NC(=O)C2CCCO2)cc1 (stereo not given) the solubility kinetic was > 48.1 µg/mL. For O=C(Nc1cccs1)Nc1cccnc1Cl, the solubility kinetic was > 38.1 µg/mL. COc1cccc(NC(=O)Nc2ccc3c(c2)CCC3)c1 showed a solubility kinetic of 0.3 µg/mL (≈ 1.06 µM). For Cc1cc(C)cc(NC(=S)NC2CC3CCCC(C2)N3C2CC2)c1 (stereo not given), the solubility kinetic was > 51.5 µg/mL. With c1ccc(CNc2nc(-c3ccccc3)nc3ccccc23)cc1 the solubility kinetic was 1.2 µg/mL (≈ 3.85 µM). NS(=O)(=O)c1ccc(CNC(=O)c2ccc(C(=O)c3ccccc3)cc2)cc1 showed a solubility kinetic of 14.6 µg/mL (≈ 37 µM).
